How the values were obtained:
Test in all cases: AlphaScreen in vitro demethylase assay
Format in all cases: biochemical
KDM4A = target: T1, KDM4A (Homo sapiens, UniProt O75164); details: IC50 ± SD (number of replicates)
T1 sequence (O75164 1-1064): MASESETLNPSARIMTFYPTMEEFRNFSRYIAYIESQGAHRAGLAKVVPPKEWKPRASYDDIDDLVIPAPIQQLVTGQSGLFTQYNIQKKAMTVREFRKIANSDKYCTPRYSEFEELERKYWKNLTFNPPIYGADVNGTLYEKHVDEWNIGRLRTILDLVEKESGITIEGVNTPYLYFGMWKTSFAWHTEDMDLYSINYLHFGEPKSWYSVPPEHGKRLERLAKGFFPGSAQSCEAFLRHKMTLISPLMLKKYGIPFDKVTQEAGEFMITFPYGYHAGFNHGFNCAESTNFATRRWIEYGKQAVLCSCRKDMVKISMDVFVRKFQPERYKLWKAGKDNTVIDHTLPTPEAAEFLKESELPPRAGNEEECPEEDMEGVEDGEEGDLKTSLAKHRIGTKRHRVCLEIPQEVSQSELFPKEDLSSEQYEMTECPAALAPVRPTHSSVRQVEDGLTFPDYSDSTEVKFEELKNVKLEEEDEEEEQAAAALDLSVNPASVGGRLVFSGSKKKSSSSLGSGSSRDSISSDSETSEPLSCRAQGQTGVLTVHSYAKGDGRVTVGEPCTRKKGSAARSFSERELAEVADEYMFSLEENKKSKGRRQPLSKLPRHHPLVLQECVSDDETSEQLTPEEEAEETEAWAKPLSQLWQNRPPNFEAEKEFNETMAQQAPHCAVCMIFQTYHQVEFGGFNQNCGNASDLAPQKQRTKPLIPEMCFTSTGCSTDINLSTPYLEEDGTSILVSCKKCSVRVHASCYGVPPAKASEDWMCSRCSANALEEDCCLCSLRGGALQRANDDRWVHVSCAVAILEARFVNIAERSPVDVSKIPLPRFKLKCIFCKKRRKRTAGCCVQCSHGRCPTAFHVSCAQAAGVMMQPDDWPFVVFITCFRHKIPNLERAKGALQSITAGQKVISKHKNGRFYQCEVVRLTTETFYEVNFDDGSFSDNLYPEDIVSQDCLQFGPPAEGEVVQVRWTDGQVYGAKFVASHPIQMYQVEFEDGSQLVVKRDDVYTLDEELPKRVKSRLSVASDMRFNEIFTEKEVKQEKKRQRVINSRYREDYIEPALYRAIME
Description: (§1) IC50 values were determined as previously described. The following amendments were made to the protocol for carrying out 2-OG competition assays.

KDM3A = target: T2, KDM3A (Homo sapiens, UniProt Q9Y4C1); details: IC50 ± SD (number of replicates)
T2 sequence (Q9Y4C1 1-1321): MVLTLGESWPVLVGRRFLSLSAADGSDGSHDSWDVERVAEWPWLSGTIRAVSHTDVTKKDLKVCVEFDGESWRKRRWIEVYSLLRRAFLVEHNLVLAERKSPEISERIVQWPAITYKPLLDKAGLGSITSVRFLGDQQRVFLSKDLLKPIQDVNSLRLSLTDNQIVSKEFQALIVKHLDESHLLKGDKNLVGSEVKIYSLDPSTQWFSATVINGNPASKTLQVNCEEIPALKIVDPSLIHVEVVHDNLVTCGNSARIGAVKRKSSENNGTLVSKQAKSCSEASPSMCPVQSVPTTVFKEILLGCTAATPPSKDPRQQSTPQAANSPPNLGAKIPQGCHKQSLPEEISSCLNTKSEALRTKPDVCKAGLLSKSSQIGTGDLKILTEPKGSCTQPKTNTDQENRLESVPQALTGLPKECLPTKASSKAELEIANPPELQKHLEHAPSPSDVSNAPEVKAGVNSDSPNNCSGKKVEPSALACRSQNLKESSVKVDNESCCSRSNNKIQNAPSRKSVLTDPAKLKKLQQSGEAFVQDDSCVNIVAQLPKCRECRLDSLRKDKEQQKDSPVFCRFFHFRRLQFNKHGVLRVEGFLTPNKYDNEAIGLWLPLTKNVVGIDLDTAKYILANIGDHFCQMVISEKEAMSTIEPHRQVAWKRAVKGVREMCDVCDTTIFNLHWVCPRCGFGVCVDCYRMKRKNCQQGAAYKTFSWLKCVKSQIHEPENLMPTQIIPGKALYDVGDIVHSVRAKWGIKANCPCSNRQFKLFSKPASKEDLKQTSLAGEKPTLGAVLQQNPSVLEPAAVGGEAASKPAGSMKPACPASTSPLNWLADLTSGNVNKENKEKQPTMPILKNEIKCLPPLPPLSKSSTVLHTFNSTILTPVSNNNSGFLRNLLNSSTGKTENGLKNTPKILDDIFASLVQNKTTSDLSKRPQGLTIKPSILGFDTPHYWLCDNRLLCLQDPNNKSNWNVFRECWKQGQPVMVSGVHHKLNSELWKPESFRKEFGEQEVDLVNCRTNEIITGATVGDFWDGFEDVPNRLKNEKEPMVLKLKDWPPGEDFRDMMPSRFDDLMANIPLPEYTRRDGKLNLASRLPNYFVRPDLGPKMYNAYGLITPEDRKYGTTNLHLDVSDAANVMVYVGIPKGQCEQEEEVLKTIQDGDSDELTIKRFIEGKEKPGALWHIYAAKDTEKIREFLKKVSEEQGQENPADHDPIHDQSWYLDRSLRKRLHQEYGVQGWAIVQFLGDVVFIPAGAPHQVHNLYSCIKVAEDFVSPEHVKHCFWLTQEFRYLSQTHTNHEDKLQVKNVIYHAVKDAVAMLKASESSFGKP
Description: as §1

KDM6B = KDM6B (Homo sapiens, UniProt O15054); details: AlphaScreen; IC50 ± SD (number of replicates); read-out: KDM6B IC50, in vitro
Description: as §1

KDM6B, sequence (O15054 whole entry): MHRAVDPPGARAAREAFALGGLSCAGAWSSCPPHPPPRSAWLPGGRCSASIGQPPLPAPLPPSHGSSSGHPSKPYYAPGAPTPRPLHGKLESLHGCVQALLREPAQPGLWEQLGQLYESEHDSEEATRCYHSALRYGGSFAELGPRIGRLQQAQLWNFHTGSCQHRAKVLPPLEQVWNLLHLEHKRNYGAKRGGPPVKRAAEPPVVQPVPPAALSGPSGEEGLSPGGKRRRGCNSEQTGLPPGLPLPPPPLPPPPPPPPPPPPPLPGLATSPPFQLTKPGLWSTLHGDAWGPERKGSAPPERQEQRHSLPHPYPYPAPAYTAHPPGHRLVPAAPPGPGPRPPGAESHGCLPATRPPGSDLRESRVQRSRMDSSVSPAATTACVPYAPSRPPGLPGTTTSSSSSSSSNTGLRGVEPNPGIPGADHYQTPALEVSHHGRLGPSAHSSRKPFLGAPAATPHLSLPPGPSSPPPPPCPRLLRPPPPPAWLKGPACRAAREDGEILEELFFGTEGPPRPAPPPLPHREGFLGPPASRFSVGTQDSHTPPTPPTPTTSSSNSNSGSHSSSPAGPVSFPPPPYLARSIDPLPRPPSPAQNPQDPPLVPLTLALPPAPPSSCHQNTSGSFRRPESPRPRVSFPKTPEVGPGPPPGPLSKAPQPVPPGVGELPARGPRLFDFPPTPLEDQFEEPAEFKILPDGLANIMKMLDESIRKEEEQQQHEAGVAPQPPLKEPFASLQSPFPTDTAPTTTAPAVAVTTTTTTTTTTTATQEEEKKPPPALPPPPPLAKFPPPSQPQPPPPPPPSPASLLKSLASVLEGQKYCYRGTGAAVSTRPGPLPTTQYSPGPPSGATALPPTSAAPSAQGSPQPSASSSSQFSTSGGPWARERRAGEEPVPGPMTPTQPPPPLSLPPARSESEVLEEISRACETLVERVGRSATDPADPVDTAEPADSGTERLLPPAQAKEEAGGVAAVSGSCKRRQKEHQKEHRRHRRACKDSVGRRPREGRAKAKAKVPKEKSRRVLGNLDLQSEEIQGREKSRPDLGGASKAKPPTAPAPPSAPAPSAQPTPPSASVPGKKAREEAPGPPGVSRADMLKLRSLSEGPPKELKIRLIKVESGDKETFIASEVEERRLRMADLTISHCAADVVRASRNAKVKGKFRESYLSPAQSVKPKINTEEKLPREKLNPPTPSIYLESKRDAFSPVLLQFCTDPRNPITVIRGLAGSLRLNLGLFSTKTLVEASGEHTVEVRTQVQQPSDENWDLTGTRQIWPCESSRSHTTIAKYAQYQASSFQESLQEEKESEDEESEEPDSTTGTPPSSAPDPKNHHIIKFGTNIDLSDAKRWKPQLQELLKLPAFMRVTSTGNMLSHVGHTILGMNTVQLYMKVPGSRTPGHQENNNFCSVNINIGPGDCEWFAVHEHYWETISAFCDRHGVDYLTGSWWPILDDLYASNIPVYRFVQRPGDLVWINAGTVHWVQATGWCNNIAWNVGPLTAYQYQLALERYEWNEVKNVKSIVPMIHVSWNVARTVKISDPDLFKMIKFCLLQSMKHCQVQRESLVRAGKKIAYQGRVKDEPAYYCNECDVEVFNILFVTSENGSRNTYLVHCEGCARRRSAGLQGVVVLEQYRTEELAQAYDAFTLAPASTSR

Row | Compound | IC50 (KDM4A) [µM] | IC50 (KDM3A) [µM] | IC50 (KDM6B) [µM]
1 | O=c1[nH]cnc2c(-n3cc(CCN4CCC(c5cccc(Cl)c5)CC4)cn3)cccc12 [CCT366293, 8-(4-(2-(4-(3-Chlorophenyl)piperidin-1-yl)ethyl)-1H-pyrazol-1-yl)quinazolin-4(3H)-one] | > 10 | – | –
2 | CCN(CCN(C)C)C(=O)CNCc1cc(C(=O)O)ccn1 [KDOAM-20] | 0.67 ± 0.23 | 1.2 ± 0.91 | 1.4 ± 0.45
3 | CCOC(=O)c1ccnc(CNCC(=O)N(CC)CCN(C)C)c1 [KDOAM-21] | 11 ± 4.5 | 2.6 ± 1.3 | 11 ± 4.6
4 | CPI-455 | 31 | > 100 | > 100

— article PMC5333395, “Assessing histone demethylase inhibitors in cells: lessons learned” (Epigenetics & Chromatin, 2017)
